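In this assay, cells in 96-well plates receive the compound at five concentrations for 48 hours. Endpoints are linearly interpolated between the surrounding concentrations. At the GI50, growth is halved. TGI: concentration producing complete growth inhibition.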
Tests used:
Assay in all cases: NCI anticancer screen, dose series, 48 h
UACC-62 melanoma = tested on: UACC-62 melanoma
UACC-257 melanoma = tested on: UACC-257 melanoma
LXFL 529 NSCLC = tested on: LXFL 529 NSCLC
EKVX NSCLC = tested on: EKVX NSCLC
SF-539 CNS = tested on: SF-539 CNS
OVCAR-3 ovarian = tested on: OVCAR-3 ovarian
SNB-78 CNS = tested on: SNB-78 CNS
OVCAR-5 ovarian = tested on: OVCAR-5 ovarian
HOP-18 NSCLC = tested on: HOP-18 NSCLC
M19-MEL melanoma = tested on: M19-MEL melanoma
KM20L2 colon = tested on: KM20L2 colon
DMS 114 small cell lung = tested on: DMS 114 small cell lung
CCRF-CEM leukemia = tested on: CCRF-CEM leukemia
DLD-1 colon = tested on: DLD-1 colon
DMS 273 small cell lung = tested on: DMS 273 small cell lung
XF 498 CNS = tested on: XF 498 CNS

Structure (SMILES) | TGI (UACC-62 melanoma) | TGI (UACC-257 melanoma) | TGI (LXFL 529 NSCLC) | TGI (EKVX NSCLC) | TGI (SF-539 CNS) | TGI (OVCAR-3 ovarian) | TGI (SNB-78 CNS) | TGI (OVCAR-5 ovarian) | TGI (HOP-18 NSCLC) | TGI (M19-MEL melanoma) | TGI (KM20L2 colon) | TGI (DMS 114 small cell lung) | TGI (CCRF-CEM leukemia) | TGI (DLD-1 colon) | TGI (DMS 273 small cell lung) | TGI (XF 498 CNS) | GI50 (UACC-62 melanoma) | GI50 (SF-539 CNS)
COC(=O)C1CC(c2ccc(Cl)cc2)=NO1 (stereo not given) | > 100 µM | > 100 µM | > 100 µM | > 100 µM | > 100 µM | > 100 µM | > 100 µM | > 100 µM | > 100 µM | > 100 µM | > 100 µM | > 100 µM | > 100 µM | > 100 µM | > 100 µM | – | – | –
O=C1C[C@@H]2[C@@H](CCC23CCCC3)N1 | > 100 µM | > 100 µM | > 100 µM | > 100 µM | > 100 µM | > 100 µM | > 100 µM | > 100 µM | > 100 µM | > 100 µM | > 100 µM | – | > 100 µM | > 100 µM | > 100 µM | – | – | –
CC1OC(OC2C(OC(=O)[C@]34CCC(C)(C)CC3C3=CCC5[C@@]6(C)C[C@H](O)[C@H](OC7OC(COC8OC(CO)C(O)C(O)C8O)C(O)C(O)C7O)[C@@](C)(C(=O)O)C6CC[C@@]5(C)C3(C)CC4)OCC(O)C2O)C(O)C(O)C1OC1OCC(O)C(O)C1O (stereo not given in full) | > 100 µM | > 100 µM | – | > 100 µM | > 100 µM | > 100 µM | > 100 µM | > 100 µM | > 100 µM | > 100 µM | > 100 µM | > 100 µM | > 100 µM | > 100 µM | > 100 µM | – | – | –
CO[C@H](C(=O)O[C@H]1C(=O)N2CC[C@@H]3CCC[C@H]1C32C)c1ccccc1 (stereo not given in full) | > 100 µM | > 100 µM | > 100 µM | > 100 µM | > 100 µM | > 100 µM | > 100 µM | > 100 µM | – | > 100 µM | > 100 µM | > 100 µM | > 100 µM | > 100 µM | – | – | – | –
COc1ccc(Cc2cc(OC)c(OC)c(OC)c2)cc1 | > 100 µM | > 71.8 µM | > 100 µM | > 100 µM | 1.76 µM | 0.424 µM | > 100 µM | > 100 µM | – | > 100 µM | – | – | 16.9 µM | > 100 µM | > 100 µM | – | – | –
CN1C(=S)CSc2ccccc21 | – | > 100 µM | > 100 µM | > 100 µM | > 100 µM | > 100 µM | > 100 µM | > 100 µM | – | > 100 µM | > 100 µM | > 100 µM | > 100 µM | > 100 µM | > 100 µM | > 100 µM | – | –
O=C1N=CN=C2C=CC(Cl)=C(I)C12 (stereo not given) | > 100 µM | > 100 µM | > 100 µM | > 100 µM | – | > 100 µM | – | > 100 µM | – | > 100 µM | > 100 µM | > 100 µM | > 100 µM | > 100 µM | > 100 µM | > 100 µM | – | –
Cc1nn(C(=O)c2ccc(Cl)cc2)c2c1C(c1ccccc1O)SC(N)=N2 (stereo not given) | > 10 µM | > 10 µM | – | > 10 µM | > 10 µM | > 10 µM | – | > 10 µM | – | – | – | – | > 10 µM | – | – | – | – | –
Cc1ccc(S(=O)(=O)NN=C2C(C)(C)CC2(C)C)cc1 | > 100 µM | > 100 µM | – | > 100 µM | > 100 µM | > 100 µM | – | > 100 µM | – | – | – | – | > 100 µM | – | – | – | – | –
COc1ccc(-c2[nH]c(-c3ccc(OC)cc3)c(-c3ccccn3)c2-c2ccccn2)cc1 | > 100 µM | > 100 µM | – | > 100 µM | > 100 µM | > 100 µM | – | > 100 µM | – | – | – | – | > 100 µM | – | – | – | – | –
C[C@@H](Oc1ccc(Oc2cnc3ccc(Cl)cc3n2)cc1)C(=O)O | > 100 µM | > 100 µM | – | > 100 µM | > 100 µM | > 100 µM | – | > 100 µM | – | – | – | – | > 100 µM | – | – | – | 46.4 µM | > 87.9 µM
CCOC(=O)c1cc(-c2ccc([N+](=O)[O-])cc2)c([N+](=O)[O-])[nH]1 | > 10 µM | 5.68 µM | – | > 10 µM | > 10 µM | > 10 µM | – | > 10 µM | – | – | – | – | > 10 µM | – | – | – | – | –
Cc1c2oc3c(C)cnc(C(=O)NC4C(=O)NC(C(C)C)C(=O)N5CCCC5C(=O)N(C)CC(=O)N(C)C(C(C)C)C(=O)OC4C)c3nc-2c(C(=O)NC2C(=O)NC(C(C)C)C(=O)N3CCCC3C(=O)N(C)CC(=O)N(C)C(C(C)C)C(=O)OC2C)c(N)c1=O (stereo not given) | 12.4 µM | 33.8 µM | – | > 75 µM | 17.7 µM | > 58.2 µM | – | > 75 µM | – | – | – | – | 5.44 µM | – | – | – | – | –
N#CC(c1ccccc1)N(CCc1ccccc1)C(=O)c1ccc(C(=O)N(CCc2ccccc2)C(C#N)c2ccccc2)cc1 (stereo not given) | 35.6 µM | 35.3 µM | – | > 100 µM | 42.6 µM | 47 µM | – | 78.7 µM | – | – | – | – | 71.5 µM | – | – | – | – | –
Cc1cccc2c(N)c3cccc(C(=O)NCC[N+](C)(C)Cc4ccc(S(C)(=O)=O)cc4)c3nc12 | > 100 µM | > 100 µM | – | > 100 µM | > 100 µM | > 100 µM | – | > 100 µM | – | – | – | – | > 62 µM | – | – | – | – | –
COc1ccc(C(OC(=O)[C@H](O[Si](C)(C)C(C)(C)C)[C@@H](NC(=O)c2ccccc2)c2ccccc2)c2ccc(OC)cc2)cc1 | > 100 µM | > 100 µM | – | > 100 µM | > 100 µM | > 100 µM | – | > 100 µM | – | – | – | – | > 100 µM | – | – | – | – | –
